This is an account of results in PubChem BioAssay AID179 (DTP/NCI, 2004).

For this test, the system named is CEM cells HIV-1 protection, formazan growth assay. Put plainly: NCI AIDS Antiviral Assay. The note with it: for IC50: measured here: growth of uninfected CEM cells. The method in brief: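 Category rules: moderately active means at least 50% protection on retest, and confirmed active means 100% protection reproducibly. The underlying data came from a formazan growth assay in HIV-1-infected CEM cells.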

The source made the active and inactive calls.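 The calls were made as follows: active = compounds giving half or more protection of infected cells from virus-caused growth loss, again on retest; inactive = the rest.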 Some results are limits rather than exact numbers.

With `Cc1nc(Nc2ccccc2)sc1C(=O)NNc1ccc([N+](=O)[O-])cc1[N+](=O)[O-]`, the EC50 is over 63.1 µM and the IC50 stood at 38 µM.

For `O=C(OC1C#CCSCC#C/C=C\1)c1ccc2c(c1)C(=O)c1ccccc1C2=O` (stereo not drawn), the EC50 was over 200 µM and the IC50 amounted to 69.2 µM.

`CC(C)(C)c1ccc2c(c1)CNCCNCCNCc1cc(C(C)(C)C)ccc1OCC1(CO2)COc2ccc(C(C)(C)C)cc2CNCCNCCNCc2cc(C(C)(C)C)ccc2OC1`: the EC50 is over 1.51 µM and the IC50 is 0.813 µM.

Take `COc1ccc(OC)c(C(Cc2ccnc3ccccc23)Cc2ccnc3ccccc23)c1`: the EC50 was over 200 µM and the IC50 was determined as 26.3 µM.

On to `CCCCCNC(=O)C(O)C(O)C(=O)NCCCCC` (stereo not drawn), for which the EC50 was over 126 µM and the IC50 is over 126 µM.

Regarding `Cc1ccc(-n2c(CSc3ccc(Cl)cc3)nnc2SCc2nc3ccccc3[nH]2)cc1`, the EC50 is over 200 µM and the IC50 came to 120 µM.

Take `O=C(CC(C(=O)c1cccs1)c1ccsc1)c1ccccc1` (stereo not drawn): the EC50 was over 200 µM and the IC50 turned out to be 151 µM.

For the compound `c1cc2cc(Cc3ccc4[nH]ccc4c3)ccc2[nH]1`, the EC50 was over 200 µM and the half-maximal inhibitory concentration (IC50) came to 30.9 µM.

For `N#CC(C#N)=CN1CCOCC1`, the EC50 is over 200 µM and the IC50 was over 200 µM.

As to `Cn1c(=O)sc2cc(C(=S)N3CCC(Cc4ccccc4)CC3)ccc21`, the EC50 was over 200 µM and the IC50 was 36.3 µM.

As for `Cc1cn([C@H]2C[C@H](NC(=O)N(O)C[C@H]3O[C@@H](n4cc(C)c(=O)[nH]c4=O)C[C@@H]3O)[C@@H](CO)O2)c(=O)[nH]c1=O`, the EC50 is over 200 µM and the IC50 is over 200 µM.

Turning to `CC(C)(C)[Si](C)(C)OCC1OC(n2cnc3c(=O)[nH]c(NCc4cccc5ccccc45)nc32)C(O[Si](C)(C)C(C)(C)C)C1O[Si](C)(C)C(C)(C)C` (stereo not drawn), the EC50 was over 200 µM and the half-maximal inhibitory concentration (IC50) was over 200 µM.

On to `O=C(CC1(O)C(=O)Nc2ccccc21)c1ccc(Cl)c(Cl)c1` (stereo not drawn), for which the outcome was inactive.

For the compound `O=C(O)c1ccc(S(=O)(=O)c2ccccc2[N+](=O)[O-])cc1`, the EC50 is over 200 µM and the IC50 is over 200 µM.

`CC12C(=O)N(C3CCC(=O)NC3=O)C(=O)C1C1CCC2C1` (stereo not drawn): the EC50 was over 200 µM and the IC50 was over 200 µM.

Regarding `CN(C)CCNC(=O)c1cc([N+](=O)[O-])cn1C`, the EC50 was over 200 µM and the IC50 is over 200 µM.

For the compound `CC(=O)Nc1ccc(C(=O)NN2C(=O)CSC2c2ccccc2)cc1` (stereo not drawn), the EC50 was over 72.4 µM and the IC50 was over 72.4 µM.

Take `CC(=N\N=C\c1ccccn1)/C(C)=N/N=C/c1ccccn1`: the EC50 is over 100 µM and the IC50 was found to be 14.1 µM.

For the compound `C/C(=N\NC(=S)N1CCN(c2ccccn2)CC1)c1cccc(C)n1`, the EC50 is over 42.7 µM and the 50% inhibitory concentration (IC50) stood at 0.0155 µM.

`Cc1cc2c(C)nn(Cc3ccc(Cl)cc3Cl)c2c(C#N)c1C`: the EC50 is over 20.9 µM and the IC50 is over 20.9 µM.

As to `COc1ccc(-c2nc3ccc([N+](=O)[O-])cc3c(=O)[nH]2)cc1`, the outcome was inactive.

For `CC(/C=C/c1ccccc1)=N/NS(=O)(=O)c1ccc([N+](=O)[O-])cc1`, the EC50 is over 15.1 µM and the IC50 was over 15.1 µM.

On to `Brc1ccc(N=NN2CCCC2)cc1`, for which the EC50 was over 200 µM and the IC50 is 38.9 µM.

For the compound `COC1OC(CO)C(N=C(C)C)C1O` (stereo not drawn), the EC50 was over 200 µM and the IC50 was over 200 µM.

Take `O=C1C(Cl)N(c2c(Cl)cccc2Cl)C1c1c[nH]c2ccccc12` (stereo not drawn): the EC50 is over 257 µM and the IC50 was 115 µM.

Regarding `[C-]#[O+].[C-]#[O+].[C-]#[O+].[Cr].c1ccc([PH+](CC[As](c2ccccc2)c2ccccc2)CC[As](c2ccccc2)c2ccccc2)cc1`, the outcome was inactive.

Turning to `Cn1c2ccccc2n2c(=O)c(-c3ccc(O)cc3)nnc12`, the EC50 was over 200 µM and the IC50 is over 200 µM.

`N#CNc1nc(C(=O)Nc2ccc(Cl)cc2)cc(-c2ccccc2)n1`: the EC50 was over 355 µM and the IC50 is over 355 µM.

Usually EC50 stands for the concentration that produces a half-maximal response. By IC50 is commonly meant the concentration that gives 50% inhibition. A higher IC50 goes with weaker potency in that assay.
